# Data as given in patent US6696471B2, “Aminopyrrole compounds” (Syntex (U.S.A.) LLC, priority 2001, dated 2004).
# Biological target: T1, p38 MAP kinase (Homo sapiens, UniProt Q16539)
# T1 construct: made in house; host or cells: E. coli (co-expressed with SEK-1 and MEKK)
# Assay: Inhibition of p-38 (MAP) kinase in vitro assay (transfer of γ-33P from ATP to Myelin Basic Protein)
# Format: biochemical
# Details: phosphorylated recombinant p38 MAP kinase, MBP substrate, γ-33P-ATP, 30° C.; read-out: p-38 inhibitory activity, IC50
# Procedure: Inhibition Of p-38 (MAP) Kinase . . . In Vitro Assay
# The p-38 MAP kinase inhibitory activity of compounds of this invention in vitro was determined by measuring the transfer of the γ-phosphate from γ-^33P-ATP by p-38 kinase to Myelin Basic Protein (MBP), using the a minor modification of the method described in Ahn, N. G.; et al. J. Biol. Chem. Vol. 266(7), 4220-4227, (1991).
# The phosphorylated form of the recombinant p38 MAP kinase was expressed with SEK-1 and MEKK in E. Coli and then purified by affinity chromatography using a Nickel column.
# The phosphorylated p38 MAP kinase was diluted in kinase buffer (20 mM 3-(N-morpholino)propanesulfonic acid, pH 7.2, 25 mM β-glycerol phosphate, 5 mM ethylene glycol-bis (beta-aminoethyl ether)-N,N,N′,N′-tetraacetic acid, 1 mM sodium vanadate, 1 mM dithiothreitol, 40 mM magnesium chloride). Test compound dissolved in DMSO or only DMSO (control) was added and the samples were incubated for 10 min at 30° C. The kinase reaction was initiated by the addition of a substrate cocktail containing MBP and γ-^33P-ATP. After incubating for an additional 20 min at 30° C., the reaction was terminated by adding 0.75% phosphoric acid. The phosphorylated MBP was then separated from the residual γ-^33P-ATP using a phosphocellulose membrane (Millipore, Bedford, Mass.) and quantitated using a scintillation counter (Packard, Meriden, Conn.).
# Compounds of the invention were active in this assay. The p-38 inhibitory activities (expressed as IC50, the concentration causing 50% inhibition of the p-38 enzyme being assayed) of some compounds of the invention are: […]
# T1 sequence (Q16539 whole entry): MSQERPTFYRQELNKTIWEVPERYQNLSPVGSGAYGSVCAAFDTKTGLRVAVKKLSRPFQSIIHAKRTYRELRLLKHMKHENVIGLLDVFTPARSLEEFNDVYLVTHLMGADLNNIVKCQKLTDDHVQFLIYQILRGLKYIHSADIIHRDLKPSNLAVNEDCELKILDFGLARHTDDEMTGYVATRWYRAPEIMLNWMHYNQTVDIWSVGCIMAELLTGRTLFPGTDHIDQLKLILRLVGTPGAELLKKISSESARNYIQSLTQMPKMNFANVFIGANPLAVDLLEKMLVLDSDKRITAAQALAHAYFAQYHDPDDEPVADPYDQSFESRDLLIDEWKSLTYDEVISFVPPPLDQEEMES
row,Structure (SMILES),IC50
1,Nc1c(C(=O)c2ccccc2)cc(-c2cccnc2)n1-c1ccc(F)cc1 [Cpd 1],164 nM
2,Nc1c(C(=O)c2cccc(O)c2)cc(-c2cccnc2)n1-c1ccc(F)cc1 [Cpd 3],468 nM
3,Nc1c(C(=O)c2cccc(OC[C@H](O)CO)c2)cc(-c2cccnc2)n1-c1ccc(F)cc1 [Cpd 4],120 nM
4,COc1cccc(C(=O)c2cc(-c3cccnc3)n(-c3ccc(F)cc3)c2N)c1 [Cpd 2],169 nM
